Experimental data: US10898469B2, “Imidazolylamide derivative” (Sumitomo Dainippon Pharma Co., Ltd., priority 2016, dated 2021)
Structures can show the parent of a compound that is named as a salt. Where two headings read alike, the source gives them in different places.

Tests used:
Type in all cases: cell-based, human
FaDu cells = assay: Inhibition test for sphere-forming ability of cancer cells (Test Example 1), FaDu; settings: Homo sapiens, concentration for 50% inhibition of cell proliferation, read-out: IC50 (μmol/L) FaDu (Sphere IC50 value)
Description: (§1) The reliable methods established for measuring the self-renewal ability of cells which is one of the CSC's properties include a method for measuring the sphere-forming ability of cancer cells in non-adherent condition in the absence of serum (Cancer Res 65, 5506-5511 (2005)). Human colorectal cancer-derived HCT-116 cells, human colon-adenocarcinoma-derived HT-29 cells, and human pharyngeal cancer-derived FaDu cells were available from American Type Culture Collection (ATCC). HCT-116 cells and HT-29 cells were cultured at 37° C. under 5% CO2 using the McCoy's 5a medium containing 10% fetal bovine serum (FBS) and 1% penicillin/streptomycin, and FaDu cells were cultured at 37° C. under 5% CO2 using the MEM medium containing 10% FBS, 1% non-essential amino acid, 1% sodium pyruvate, and 1% penicillin/streptomycin. HCT-116 cells, HT-29 cells, and FaDu cells were seeded in a 384 Well Black Clear Bottom Ultra-Low Attachment Microplate (Corning Cat. No. 3827) in an amount of 350-800 cells/well using the DMEM/F12 medium containing 2% B27 supplement (GIBCO), 20 ng/mL epidermal growth factor (EGF) (peprotech), 10 ng/mL basic fibroblast growth factor (bFGF) (peprotech), 5 μg/mL insulin (Sigma), and 1% penicillin/streptomycin. Each test compound was added into each well to adjust the final concentration of DMSO to 0.1%, and the cells were cultured for 4 days. The number of viable cells in each well was then measured with CellTiter-Glo® Luminescent Cell Viability Assay (Promega) to calculate the concentration of each test compound for 50% inhibition of cell proliferation (Sphere IC50 value; μmol/L).
(§2) The experiment of Test Example 1 was performed for each compound of each Example. The concentration of each test compound for 50% inhibition of cell proliferation (Sphere IC50 value; μmol/L) is shown in the following Table.

HT-29 cells = assay: Inhibition test for sphere-forming ability of cancer cells (Test Example 1), HT-29; settings: concentration for 50% inhibition of cell proliferation, read-out: IC50 (μmol/L) HT-29 (Sphere IC50 value)
Description: as §1, §2

HCT-116 cells = assay: Inhibition test for sphere-forming ability of cancer cells (Test Example 1), HCT-116; settings: HCT-116 cells, concentration for 50% inhibition of cell proliferation, read-out: IC50 (μmol/L) HCT-116 (Sphere IC50 value)
Description: as §1, §2

IC50 (FaDu cells) [µmol/L]	IC50 (HT-29 cells; Homo sapiens) [µmol/L]	IC50 (HCT-116 cells; Homo sapiens) [µmol/L]	IC50 (HT-29 cells) [µmol/L]	IC50 (HCT-116 cells) [µmol/L]	SMILES
–	2.52	6.12	–	–	C=Cc1ncc(C(=O)Nc2cn(Cc3cccc(C(F)(F)F)c3)cn2)cc1F [Example 99, 6-Ethenyl-5-fluoro-N-{1-[3-(trifluoromethyl)benzyl]-1H-imidazol-4-yl}nicotinamide]
–	–	–	8.13	9.6	O=C(Nc1cn(Cc2cccc(C(F)(F)F)c2)cn1)c1cc2ccccc2cn1 [Example 178]
–	–	–	5.6	> 10	O=C(Nc1cn(Cc2cccc(C(F)(F)F)c2)cn1)c1cccnn1 [Example 182]
–	–	–	9.07	8.16	O=C(Nc1cn(Cc2cccc(C(F)(F)F)c2)cn1)c1ccc2ncccc2n1 [Example 184]
–	–	–	2.84	6.05	O=C(Nc1cn(Cc2cccc(C(F)(F)F)c2)cn1)c1cc2cnccc2s1 [Example 194]
–	–	–	8	9.06	O=C(Nc1cn(Cc2cccc(C(F)(F)F)c2)cn1)c1cnc(Br)c(F)c1 [Example 227]
–	6.36	6.72	–	–	O=C(Nc1cn(Cc2cccc(C(F)(F)F)c2)cn1)c1ccc(-c2ccc(CO)nc2)cc1 [Example 246, 4-[6-(Hydroxymethyl)pyridin-3-yl]-N-{-[3-(trifluoromethyl)benzyl]-1H-imidazol-4-yl}benzamide]
–	8.19	> 10	–	–	O=C(Nc1cn(Cc2cccc(C(F)(F)F)c2)cn1)c1ccccc1CO [Example 250, 2-(Hydroxymethyl)-N-{1-[3-(trifluoromethyl)benzyl]-1H-imidazol-4-yl}benzamide]

Further lines, the compound ahead of its results:

SMILES	IC50 (FaDu cells) [µmol/L]	IC50 (HT-29 cells; Homo sapiens) [µmol/L]	IC50 (HCT-116 cells; Homo sapiens) [µmol/L]	IC50 (HT-29 cells) [µmol/L]	IC50 (HCT-116 cells) [µmol/L]
CCOc1ccc(/C=C/C(=O)Nc2cn(Cc3cccc(Cl)c3)cn2)cn1 [Example 1, (E)-N-(1-(3-Chlorobenzyl)-1H-imidazol-4-yl)-3-(6-ethoxypyridin-3-yl)acrylamide]	0.05	0.02	0.32	–	–
Nc1ccc(/C=C/C(=O)Nc2cn(Cc3cccc(Cl)c3)cn2)cc1 [Example 3, (E)-3-(4-Aminophenyl)-N-(1-(3-chlorobenzyl)-1H-imidazol-4-yl)acrylamide Dihydrochloride]	3.13	3.58	6.76	–	–
Cn1cc(/C=C/C(=O)Nc2cn(Cc3cccc(Cl)c3)cn2)ccc1=O [Example 12]	1.44	0.92	7.54	–	–
CS(=O)(=O)c1ccc(/C=C/C(=O)Nc2cn(Cc3cccc(Cl)c3)cn2)cc1 [Example 13]	2.84	0.74	8.72	–	–
Nc1ccc(/C=C/C(=O)Nc2cn(Cc3cccc(Cl)c3)cn2)cn1 [Example 19, (E)-3-(6-Aminopyridin-3-yl)-N-(1-(3-chlorobenzyl)-1H-imidazol-4-yl)acrylamide]	0.66	0.6	0.89	–	–
CC(=O)Nc1ccc(/C=C/C(=O)Nc2cn(Cc3cccc(Cl)c3)cn2)cn1 [Example 20, (E)-3-(6-Acetylaminopyridin-3-yl)-N-(1-(3-chlorobenzyl)-1H-imidazol-4-yl)acrylamide]	0.06	0.01	0.45	–	–
COc1ccc(C(=O)Nc2cn(Cc3cccc(Cl)c3)cn2)c(OC)n1 [Example 189]	–	–	–	4.64	4.94
COc1ccc(OC)c(/C=C/C(=O)Nc2cn(Cc3cccc(C(F)(F)F)c3)cn2)c1 [Example 233]	–	5.46	4.35	–	–
O=C(/C=C/c1cc(O)ccc1O)Nc1cn(Cc2cccc(C(F)(F)F)c2)cn1 [Example 235, (2E)-3-(2,5-Dihydroxyphenyl)-N-{1-[3-(trifluoromethyl)benzyl]-1H-imidazol-4-yl}prop-2-enamide Hydrochloride]	–	8.77	3.84	–	–
COc1ccc(NC(=O)c2cn(Cc3cc(F)c(F)c(F)c3)cn2)cn1 [Example 254]	–	–	–	6.45	> 10
COc1ccc(NC(=O)c2cn(Cc3cccc(Cl)c3)cn2)cn1 [Example 263]	–	–	–	8.49	> 10
